Measured values taken from ChEMBL document CHEMBL5365510, “Discovery of Novel, Thienopyridine-Based Tyrosine Kinase Inhibitors Targeting Tumorigenic RON Splice Variants” (ACS Med Chem Lett, 2023).
Calls of active or inactive are those of the source. The calls are words filed in the database; no cut-off is given here.

Tests used:
[1] = tested on: KM12C; experiment: Antiproliferative activity against human KM12-C cells harbouring wild-type KRAS and RON delta 160 assessed as cell death rate at 5 uM measured after 48 hrs by trypan blue exclusion assay relative to control; assay type: functional
[2] = tested on: CAPAN-1; experiment: Antiproliferative activity against human CAPAN-1 cells harbouring KRAS G12V mutant and RON delta 155 assessed as cell growth inhibition measured after 72 hrs by MTS assay; assay type: functional
[3] = tested on: ASPC1; experiment: Antiproliferative activity against human ASPC1 cells harbouring KRAS G12D mutant and RON delta 165 assessed as cell growth inhibition measured after 72 hrs by MTS assay; assay type: functional
[4] = Metabolic stability in human liver microsomes assessed as parent compound remaining after 30 mins in presence of NADPH by LC/MS/MS analysis; assay type: ADME, Microsome; conditions: read-out: Stability
[5] = tested on: SW1417; experiment: Antiproliferative activity against human SW1417 cells harbouring wild-type KRAS and RON delta 155 assessed as cell growth inhibition measured after 72 hrs by MTS assay; assay type: functional
[6] = tested on: KM12C; experiment: Antitumor activity against human KM12-C cells harbouring RON delta 160 xenografted in BALB/c mouse assessed as tumor growth inhibition at 1 mg/kg, po qd measured after 14 days; assay type: functional; conditions: 336 h, time 14 day, read-out: TGI
[7] = tested on: MIA PaCa-2; experiment: Antiproliferative activity against human MIA PaCa-2 cells harbouring KRAS G12C mutant and RON delta 160 assessed as cell growth inhibition measured after 72 hrs by MTS assay; assay type: functional
[8] = Clearance in Sprague-Dawley rat at 1 mg/kg, iv measured after 24 hrs by LC/MS/MS analysis; assay type: ADME, organism-based; conditions: in vivo, iv, 1 mg/kg, 24 h
[9] = AUC(0 to infinity) in Sprague-Dawley rat at 1 mg/kg, iv measured after 24 hrs by LC/MS/MS analysis; assay type: ADME, organism-based; parameters: time 24 hrs, dose 1 mg/kg, route iv; conditions: in vivo, 24 h
[10] = tested on: KM12C; experiment: Antitumor activity against human KM12-C cells harbouring RON delta 160 xenografted in BALB/c mouse assessed as tumor growth inhibition at 10 mg/kg, po qd measured after 14 days; assay type: functional; conditions: 336 h, time 14 day, read-out: TGI
[11] = Antitumor activity against patient derived Colorectal cancer cell harbouring wild-type KRAS and RON delta 160 xenografted in BALB/c mouse assessed as tumor growth inhibition at 10 mg/kg, po qd measured after 28 days; assay type: functional; conditions: Homo sapiens, 672 h, time 28 day, read-out: TGI
[12] = tested on: T84; experiment: Antitumor activity against human T84 cells harbouring RON delta 165 xenografted in BALB/c mouse assessed as tumor growth inhibition at 30 mg/kg, po qd measured after 34 days; assay type: functional; conditions: T84, 816 h, time 34 day, read-out: TGI
[13] = tested on: HCT-15; experiment: Antiproliferative activity against human HCT-15 cells harbouring KRAS G13D mutant and RON delta 160 assessed as cell growth inhibition measured after 72 hrs by MTS assay; assay type: functional
[14] = tested on: SW-620; experiment: Antiproliferative activity against human SW620 cells harbouring KRAS G12 V mutant and RON delta 155 assessed as cell growth inhibition measured after 72 hrs by MTS assay; assay type: functional
[15] = tested on: SW-620; experiment: Antitumor activity against human SW620 cells harbouring RON delta 155 xenografted in BALB/c mouse assessed as tumor growth inhibition at 30 mg/kg, po qd measured after 28 days; assay type: functional; conditions: SW-620, 672 h, time 28 day, read-out: TGI
[16] = tested on: KM12C; experiment: Antitumor activity against human KM12-C cells harbouring RON delta 160 xenografted in BALB/c mouse assessed as tumor growth inhibition at 3 mg/kg, po qd measured after 14 days; assay type: functional; conditions: 336 h, time 14 day, read-out: TGI
[17] = AUC(0 to infinity) in Sprague-Dawley rat at 5 mg/kg, po measured after 24 hrs by LC/MS/MS analysis; assay type: ADME, organism-based; parameters: dose 5 mg/kg, time 24 hrs, route po; conditions: in vivo, 24 h
[18] = tested on: PANC-1; experiment: Antiproliferative activity against human PANC-1 cells harbouring KRAS G12D mutant and RON delta 155 assessed as cell growth inhibition measured after 72 hrs by MTS assay; assay type: functional
[19] = Tmax in Sprague-Dawley rat at 5 mg/kg, po measured after 24 hrs by LC/MS/MS analysis; assay type: ADME, organism-based; conditions: in vivo
[20] = tested on: LS-411N; experiment: Antiproliferative activity against human LS-411N cells harbouring wild-type KRAS and RON delta 155 assessed as cell growth inhibition measured after 72 hrs by MTS assay; assay type: functional
[21] = tested on: SW480; experiment: Antiproliferative activity against human SW480 cells harbouring KRAS G12V mutant and RON delta 155 assessed as cell growth inhibition measured after 72 hrs by MTS assay; assay type: functional
[22] = tested on: PANC-03-27; experiment: Antiproliferative activity against human Panc 03.27 cells harbouring KRAS G12V mutant and RON delta 155 assessed as cell growth inhibition measured after 72 hrs by MTS assay; assay type: functional
[23] = tested on: NIH3T3; experiment: Inhibition of RON splicing variant 165 (unknown origin) transfected in […] cells assessed as reduction in RON phosphorylation at 100 uM incubated for 2 hrs by Western blotting analysis; assay type: cell-based
[24] = Half life in Sprague-Dawley rat at 5 mg/kg, po measured after 24 hrs by LC/MS/MS analysis; assay type: ADME, organism-based; conditions: in vivo
[25] = Antiproliferative activity against human SW480E cells harbouring KRAS G12V mutant and RON delta 160 assessed as cell growth inhibition measured after 72 hrs by MTS assay; assay type: functional
[26] = Cmax in Sprague-Dawley rat at 5 mg/kg, po measured after 24 hrs by LC/MS/MS analysis; assay type: ADME, organism-based; parameters: dose 5 mg/kg, time 24 hrs, route po; conditions: in vivo
[27] = tested on: NIH3T3; experiment: Inhibition of RON splicing variant 160 (unknown origin) transfected in […] cells assessed as reduction in RON phosphorylation at 100 uM incubated for 2 hrs by Western blotting analysis; assay type: cell-based
[28] = tested on: HT-29; experiment: Antiproliferative activity against human HT-29 cells harbouring wild-type KRAS and RON delta 160 assessed as cell death rate at 5 uM measured after 48 hrs by trypan blue exclusion assay relative to control; assay type: functional
[29] = Volume of distribution at steady state in Sprague-Dawley rat at 1 mg/kg, iv measured after 24 hrs by LC/MS/MS analysis; assay type: ADME, organism-based; conditions: in vivo, read-out: Vdss
[30] = Antiproliferative activity against human SNU-1047 cells harbouring wild-type KRAS and RON delta 155 assessed as cell growth inhibition measured after 72 hrs by MTS assay; assay type: functional
[31] = tested on: KM12C; experiment: Antitumor activity against human KM12-C cells harbouring RON delta 160 xenografted in BALB/c mouse assessed as tumor growth inhibition at 30 mg/kg, po qd measured after 14 days; assay type: functional; conditions: 336 h, time 14 day, read-out: TGI
[32] = tested on: KM12C; experiment: Antiproliferative activity against human KM12-C cells harbouring wild-type KRAS and RON delta 160 assessed as cell growth inhibition measured after 72 hrs by MTS assay; assay type: functional
[33] = Half life in Sprague-Dawley rat at 1 mg/kg, iv measured after 24 hrs by LC/MS/MS analysis; assay type: ADME, organism-based; conditions: in vivo
[34] = Oral bioavailability in Sprague-Dawley rat at 5 mg/kg measured after 24 hrs by LC/MS/MS analysis; assay type: ADME, organism-based; conditions: in vivo, po, 5 mg/kg, 24 h
[35] = tested on: NIH3T3; experiment: Inhibition of RON splicing variant 155 (unknown origin) transfected in […] cells assessed as reduction in RON phosphorylation at 100 uM incubated for 2 hrs by Western blotting analysis; assay type: cell-based
[36] = tested on: HT-29; experiment: Antiproliferative activity against human HT-29 cells harbouring wild-type KRAS and RON delta 160 assessed as cell growth inhibition measured after 72 hrs by MTS assay; assay type: functional

**Q.** Which results are given for `CCOc1ccn(-c2ccc(F)cc2)c(=O)c1C(=O)Nc1ccc(Oc2ccnc3cc(-c4ccc(CN5CCOCC5)cn4)sc23)c(F)c1`?
**A.** Activity [1]: 41.9%; GI50 [2]: 550 nM; GI50 [3]: 460 nM; remaining at 0.5 h [4]: 69%; GI50 [5]: 320 nM; inhibition in vivo at 1 mg/kg [6]: 29.4%; GI50 [7]: 630 nM; CL [8]: 11.5 mL/min/kg; AUC [9]: 7240 ng·h/mL; inhibition in vivo at 10 mg/kg [10]: 73%; inhibition in vivo at 10 mg/kg [11]: 74.9%; inhibition in vivo at 30 mg/kg [12]: 88.3%; GI50 [13]: 290 nM; GI50 [14]: 320 nM; inhibition in vivo at 30 mg/kg [15]: 79.8%; inhibition in vivo at 3 mg/kg [16]: 35%; AUC [17]: 12600 ng·h/mL; GI50 [18]: 2400 nM; Tmax [19]: 1 h; GI50 [20]: 1010 nM; GI50 [21]: 340 nM; GI50 [22]: 7340 nM; inhibition [23]: Active; half-life [24]: 3.1 h; GI50 [25]: 450 nM; Cmax [26]: 2020 ng/mL; inhibition [27]: Active; Activity [28]: 51.3%; Vd [29]: 2.25 L/kg; GI50 [30]: 550 nM; inhibition in vivo at 30 mg/kg [31]: 85.2%; GI50 [32]: 7 nM; half-life [33]: 3.28 h; F [34]: 87.01%; inhibition [35]: Active

**Q.** For `CCOc1ccn(-c2ccc(F)cc2)c(=O)c1C(=O)Nc1ccc(Oc2ccnc(N)c2Cl)c(F)c1` [BMS-777607], which GI50 [2] is on record?
**A.** 9020 nM

**Q.** What about the GI50 [3] of the same molecule?
**A.** > 10000 nM

**Q.** And the GI50 [5]?
**A.** > 10000 nM

**Q.** What about the GI50 [7] of the same molecule?
**A.** > 10000 nM

**Q.** And the inhibition in vivo at 10 mg/kg [11]?
**A.** 1.5%

**Q.** And the GI50 [36]?
**A.** > 10000 nM

**Q.** What about the inhibition in vivo at 30 mg/kg [12] of the same molecule?
**A.** 46.9%

**Q.** And the GI50 [13]?
**A.** 5000 nM

**Q.** And the GI50 [14]?
**A.** 860 nM

**Q.** And the inhibition in vivo at 30 mg/kg [15]?
**A.** 41.6%

**Q.** What about the GI50 [18] of the same molecule?
**A.** > 10000 nM

**Q.** What about the GI50 [20] of the same molecule?
**A.** > 10000 nM

**Q.** What about the GI50 [21] of the same molecule?
**A.** > 10000 nM

**Q.** What about the GI50 [22] of the same molecule?
**A.** > 10000 nM

**Q.** What about the GI50 [25] of the same molecule?
**A.** > 10000 nM

**Q.** What about the GI50 [30] of the same molecule?
**A.** > 10000 nM

**Q.** What about the GI50 [32] of the same molecule?
**A.** 133 nM
